# From the supplement of paper PMC10307832
# Experiments:
# Test in all cases: relative viability (nuclei count vs DMSO), 5 days (fraction); higher = more cells survive
# R406 = compound: COc1cc(Nc2ncc(F)c(Nc3ccc4c(n3)NC(=O)C(C)(C)O4)n2)cc(OC)c1OC [R406]
# In short: (§1)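 Five library-drug doses, separated by factors of √10, were pinned into 1536-well plates holding lung cancer cell lines after an overnight stay at 37 °C. Cells were fixed, permeabilised and Hoechst-stained in one step after 5 days without medium change, then imaged at 4×. Viability compares treated-well with vehicle-well nuclei, counted in MetaXpress, as a median across plates. Passing plates had control CV below 25% and at least one doubling.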
# Daporinad = compound: O=C(/C=C/c1cccnc1)NCCCCC1CCN(C(=O)c2ccccc2)CC1 [Daporinad]
# In short: as §1
# R406 + OSI-027 = compound: COc1cc(Nc2ncc(F)c(Nc3ccc4c(n3)NC(=O)C(C)(C)O4)n2)cc(OC)c1OC [R406] + COc1cccc2cc(-c3nc([C@H]4CC[C@H](C(=O)O)CC4)n4ncnc(N)c34)[nH]c12 [OSI-027] (partner 0.5 µM)
# In short: (§2)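 Lung cancer cell lines were seeded in 1536-well plates and dosed by pin tool the next day, with either a single drug or a fixed anchor-drug dose combined with five library-drug doses (not always all listed) spaced in √10 steps. Five days later, one step fixed the cells and stained their nuclei (final 0.05% Triton X-100, 1% formaldehyde, 1 ug/ml Hoechst), and nuclei were counted on 4× images. Relative viability is the nuclei count in treated wells divided by the count in vehicle wells, and each value is the median of duplicate plates.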
# Daporinad + Pemetrexed = compound: O=C(/C=C/c1cccnc1)NCCCCC1CCN(C(=O)c2ccccc2)CC1 [Daporinad] + Nc1nc2[nH]cc(CCc3ccc(C(=O)N[C@@H](CCC(=O)O)C(=O)O)cc3)c2c(=O)[nH]1 [Pemetrexed] (partner 0.2 µM)
# In short: as §2
Cell Line,relative viability (R406; 0.08 µM),relative viability (R406; 0.253 µM),relative viability (R406; 0.8 µM),relative viability (R406; 2.53 µM),relative viability (R406; 8 µM),relative viability (Daporinad; 0.0005 µM),relative viability (Daporinad; 0.001581 µM),relative viability (Daporinad; 0.005 µM),relative viability (Daporinad; 0.01581 µM),relative viability (R406 + OSI-027; first compound 0.08 µM),relative viability (R406 + OSI-027; first compound 0.253 µM),relative viability (R406 + OSI-027; first compound 0.8 µM),relative viability (R406 + OSI-027; first compound 2.53 µM),relative viability (R406 + OSI-027; first compound 8 µM),relative viability (Daporinad + Pemetrexed; first compound 0.0005 µM),relative viability (Daporinad + Pemetrexed; first compound 0.001581 µM),relative viability (Daporinad + Pemetrexed; first compound 0.005 µM),relative viability (Daporinad + Pemetrexed; first compound 0.01581 µM)
NCI-H520,0.869,1.12,1.12,0.559,0.298,1.14,0.804,0.286,0.238,0.243,0.302,0.336,0.25,0.188,0.67,0.395,0.239,0.149
NCI-H522,0.889,1.1,1.13,0.78,0.617,1.04,0.931,1.06,0.738,0.681,0.742,0.954,0.501,0.593,0.983,1.3,1.09,0.668
NCI-H596,0.959,1.22,1.04,0.663,0.397,0.911,1.02,0.991,0.638,0.793,0.682,0.903,0.329,0.269,0.432,0.457,0.525,0.36
NCI-H647,0.943,1.13,1.1,0.538,0.233,0.914,1.11,1.07,1.05,0.657,0.504,0.878,0.298,0.15,0.193,0.191,0.173,0.21
NCI-H650,0.895,1.12,1,0.791,0.653,0.899,0.953,1.05,1.01,0.453,0.553,0.465,0.45,0.344,0.903,0.949,1.02,1.16
NCI-H661,0.888,0.947,1.01,0.967,0.649,1.01,0.982,0.72,0.605,0.674,0.819,0.702,0.501,0.38,0.959,0.791,0.652,0.51
NCI-H838,0.911,1.08,1.11,0.544,0.214,0.999,1.03,1.04,0.657,0.407,0.472,0.368,0.326,0.167,0.249,0.262,0.172,0.179
NCI-H1355,0.977,1.13,1.11,0.626,0.61,0.968,1.13,1.14,1.03,0.474,0.404,0.456,0.163,0.189,1,1.1,1.03,0.873
NCI-H1395,1.01,1.05,1.02,0.713,0.635,0.88,1.09,1.09,0.969,0.592,0.73,0.754,0.429,0.424,0.839,1.05,0.896,0.927
NCI-H1437,0.994,1.08,1.06,0.884,0.622,0.891,1.01,1.01,0.99,0.91,0.86,1.11,0.835,0.593,0.312,0.313,0.316,0.332
NCI-H1563,0.904,0.971,1.01,0.928,0.539,1.07,0.995,0.983,0.904,0.736,0.734,0.831,0.638,0.543,0.722,0.655,0.873,0.641
NCI-H1648,0.759,0.614,1.03,0.795,0.786,0.836,0.933,0.9,0.835,–,–,0.255,0.249,0.28,0.596,0.617,0.843,0.769
NCI-H1650,1.02,1.23,1.06,0.212,0.155,0.981,1.05,1.07,0.848,0.719,0.644,0.637,0.132,0.137,0.426,0.395,0.458,0.391
NCI-H1651,0.926,1.1,1.05,0.899,0.667,1.01,1.03,1.05,0.874,0.632,0.749,0.804,0.621,0.286,0.602,0.557,0.659,0.545
NCI-H1666,1,1.02,1.05,1.03,0.876,0.891,1.17,1.05,1,0.829,0.851,0.88,0.829,0.642,0.902,0.839,0.862,0.806
NCI-H1734,0.985,1.18,1.16,0.269,0.418,1.04,1.14,0.975,0.453,0.604,0.684,0.647,0.381,0.374,0.473,0.422,0.425,0.353
NCI-H1755,0.947,1.05,1.13,0.838,0.796,0.966,0.989,1.03,1.02,0.667,0.78,0.692,0.331,0.376,0.421,0.397,0.454,0.469
NCI-H1792,1,1.07,1.17,0.251,0.386,0.828,1.17,1.11,1.15,0.642,0.772,0.784,0.37,0.378,0.721,1.02,0.76,0.674

Cell Line,relative viability (R406; 0.08 µM),relative viability (R406; 0.253 µM),relative viability (R406; 0.8 µM),relative viability (R406; 2.53 µM),relative viability (R406; 8 µM),relative viability (Daporinad; 0.0005 µM),relative viability (Daporinad; 0.001581 µM),relative viability (Daporinad; 0.005 µM),relative viability (Daporinad; 0.01581 µM),relative viability (R406 + OSI-027; first compound 0.08 µM),relative viability (R406 + OSI-027; first compound 0.253 µM),relative viability (R406 + OSI-027; first compound 0.8 µM),relative viability (R406 + OSI-027; first compound 2.53 µM),relative viability (R406 + OSI-027; first compound 8 µM),relative viability (Daporinad + Pemetrexed; first compound 0.0005 µM),relative viability (Daporinad + Pemetrexed; first compound 0.001581 µM),relative viability (Daporinad + Pemetrexed; first compound 0.005 µM),relative viability (Daporinad + Pemetrexed; first compound 0.01581 µM)
NCI-H1793,0.731,1.17,1.13,0.159,0.279,0.801,0.959,0.984,1.09,0.251,0.273,0.303,0.116,0.158,0.727,1.03,1,1.05
NCI-H1915,1.01,1.15,1.05,0.667,0.835,1.01,1.13,1.07,1.03,0.619,0.708,0.581,–,0.4,0.474,0.505,0.499,0.174
NCI-H1944,0.932,1.08,0.986,0.858,0.783,0.921,1.05,1.07,1.02,0.398,0.41,0.419,0.304,0.242,0.607,0.716,0.706,0.577
NCI-H1975,0.848,1.03,1.02,0.479,0.385,1.05,0.916,1.01,0.968,0.699,0.678,0.854,0.252,0.15,0.3,0.313,0.31,0.256
NCI-H1993,1.01,1.09,0.921,0.658,0.599,0.881,0.99,1.05,1.15,0.546,0.521,0.55,0.515,0.552,0.54,0.561,0.644,0.567
NCI-H2009,0.975,1.04,1.11,0.853,0.376,0.918,1.08,1.07,0.905,0.602,0.729,0.747,0.301,0.149,1.04,1.01,0.872,0.545
NCI-H2023,0.902,1.05,1.12,0.388,0.241,0.982,1.15,1.09,0.987,0.413,0.464,0.488,0.134,0.0924,0.224,0.231,0.267,0.202
NCI-H2085,0.99,1.06,1.1,0.823,0.736,0.984,1.02,1.08,1.18,0.863,0.968,0.861,0.259,0.345,0.843,–,0.994,1.04
NCI-H2087,1.05,1.16,1.23,0.428,0.851,0.906,1.16,1.22,1.02,0.44,0.597,0.658,–,0.499,0.675,0.739,0.711,0.764
NCI-H2126,1.05,1.04,1.07,0.918,0.849,1.02,0.978,1.03,1.09,0.624,0.78,0.661,0.606,0.641,0.644,0.68,0.694,0.7
NCI-H2170,0.962,0.972,1.06,0.729,0.892,0.923,1.06,1.03,1.06,0.734,0.654,0.688,0.415,0.648,0.277,0.25,0.252,0.252
NCI-H2228,1.1,1.3,1.15,0.385,0.298,0.925,0.846,1.24,0.973,0.529,0.574,0.867,0.138,0.163,0.342,0.307,0.304,0.406
NCI-H2342,1,0.964,1.01,0.916,0.93,1.08,0.839,0.952,0.974,0.536,0.569,0.653,0.61,0.513,0.782,0.739,0.862,0.819
NCI-H2347,1.06,1.18,1.11,0.935,0.796,1.13,1.13,1.02,1.09,0.381,0.436,0.479,0.278,0.253,0.441,0.402,0.472,0.454
NCI-H2405,0.98,1.11,1.06,0.746,0.382,1.08,1.12,1.02,0.509,0.658,0.686,0.608,0.556,0.283,1.17,1.14,1.03,0.413
NCI-H3122,0.948,1,0.989,0.945,0.977,0.955,1,1.05,0.984,0.956,1.06,1.01,0.319,0.78,0.199,0.185,0.185,0.203
PC-3 [JPC-3],1.04,1.17,1.04,0.819,0.647,1.02,1.1,1.14,1.12,0.854,0.872,0.932,0.494,0.427,1.05,1.14,1.34,1.07
